# Data from patent EP1352977A2, “Novel Desulfitobacterium strain for the degradation of chloroalkenes” (UNIVERSITEIT GENT, priority 2002, dated 2003).
# “Also recorded” adds a separate entry of the source.
# What was measured:
# Format in all cases: cell-based, Desulfitobacterium dichloroeliminans strain DCA1
# [1] = tested on: Desulfitobacterium strain DCA1; test: Substrate range determination: growth on and dechlorination product from chlorinated substrates
# [2] = tested on: Desulfitobacterium strain DCA1; test: Inhibition of 1,2-DCA dechlorination / toxicity to strain DCA1
# [3] = tested on: Desulfitobacterium strain DCA1; test: Growth of strain DCA1 on other electron acceptors; conditions: for growth in the presence of electron acceptor: 3mM, electron donors lactate and H2
smiles,measurement,setting,value
"ClCC(Cl)Cl [1,1,2-TCA, 1,1,2-trichloroethane]",growth of strain DCA1,[1],sustained growth; also recorded: supported growth
"ClCC(Cl)CCl [1,2,3-trichloropropane]",dechlorination reaction,[1],no dechlorination reaction was observed
"CCC(Cl)CCl (stereo not drawn) [1,2-DCB, 1,2-dichlorobutane]",growth of strain DCA1,[1],sustained growth
"CC(Cl)CCl (stereo not drawn) [1,2-dichloropropane]",growth of strain DCA1,[1],sustained growth
"OCC(Cl)CCl (stereo not drawn) [2,3-DC-propanol]",dechlorination reaction,[1],no dechlorination reaction was observed
"ClC(Cl)Cl [Chloroform, reference compound]",inhibition at 50 µM,"[2]; Desulfitobacterium dichloroeliminans, DCA1, read-out: inhibition of the dechlorination of 1,2-DCA",< 50%
"CC(Cl)C(C)Cl [D-2,3-DCB, D-2,3-dichlorobutane]",growth of strain DCA1,[1],sustained growth
O=C(O)/C=C/C(=O)O [Fumarate],conversion as electron acceptors,[3],not converted
same,toxicity to strain DCA1,[2],not toxic
"CC(Cl)C(C)Cl [L-2,3-DCB, L-2,3-dichlorobutane]",growth of strain DCA1,[1],sustained growth
O=NO [NO2^-],conversion as electron acceptors,[3],not converted
same,inhibition of the dechlorination,[2]; 2.5 mM,fully inhibited
O=[N+]([O-])O [NO3^-],growth in the presence of electron acceptor,[3],grew
O=O [O2],conversion as electron acceptors,[3],not converted
"CCCI [Propyliodide, reference compound]",inhibition of the dechlorination,"[2]; 50 µM, in the dark, light reversible",fully inhibited
O=S(O)(O)=S [S2O3^2-],growth in the presence of electron acceptor,[3],grew
O=S(O)O [SO3^2-],growth in the presence of electron acceptor,[3],grew
O=S(=O)(O)O [SO4^2-],conversion as electron acceptors,[3],not converted
Cl[C@H]1[C@H](Cl)[C@@H](Cl)[C@@H](Cl)[C@H](Cl)[C@H]1Cl [lindane],dechlorination reaction,[1],no dechlorination reaction was observed
"C[C@H](Cl)[C@@H](C)Cl [meso-2,3-DCB, meso-2,3-dichlorobutane]",growth of strain DCA1,[1],sustained growth
"O=C(O)[C@@H](Br)[C@@H](Br)C(=O)O [meso-2,3-dibromosuccinate]",dechlorination reaction,[1],no dechlorination reaction was observed
